Experimental data: patent US20050171194A1, “Enlargement of mucocutaneous or cutaneous organs and sites with topical compositions” (priority 2003, published 2005)
Several values for one entry are separate records, joined by “and”; a condition that tells them apart may be missing. Equal entries are not always repeated. Where two headings read alike, the source gives them in different places.

How the values were obtained:
forearm skin = assay: Forearm skin thickness measured by micrometer calipers after topical application; format: in vivo, human; conditions: for % Increase Over (summary of increased skin thickness): 10-35% concentration twice daily on forearm skin, range over 2-13 subjects
Source text: Measuring the increase in thickness of the skin was accomplished in accordance with the following procedures. The increased plumpness or skin thickness by topical application of active ingredients of the embodiments is mainly due to increased biosynthesis of dermal components in the skin. The three most important dermal components are glycosaminoglycans (GAGs), collagens and elastic fibers. The increased skin thickness caused by increased biosynthesis of dermal components can be distinguished from that by water retention or edema formation. In the former case, the skin remains thickened for weeks and months after termination of topical application. In the latter case, the increased skin thickness returns to the original skin thickness within days after termination of topical application. • (1) Forearm Skin
The most convenient body area for testing skin thickness is the forearm skin. For example, a test substance in a formulation was topically applied once or twice daily to left or right forearm for 3 to 6 months and the other forearm was untreated or treated with a vehicle control. The skin plumpness or thickness was measured by micrometer calipers as follows. The skin was grasped with a 2×6 cm hinge plate, the internal faces of the hinge were coated with soft cloth to prevent slippage, and manually squeezed to a threshold point when the subject felt tight. Combined skin thickness of two whole-skin layers including thickness of the two hinge leaves was measured with micrometer calipers. Thickness of the two hinge leaves was subtracted to determine the actual thickness of two whole-skin layers. Triplicate measurements on treated site were done and an average number was used for calculation of the skin thickness. […]
Hydroxycarboxylic acids, N-acyl-aldosamines, N-acylamino acids and related compounds at various concentrations were topically applied to forearms of volunteer subjects or patients. As shown in Tables 1-7, the skin plumpness or thickness was increased substantially by the compounds of the present invention. The increased skin thickness was believed to be due to increased biosynthesis of GAGs, collagen and elastic fibers. […]. From the above test results, hydroxycarboxylic acids, N-acyl-aldosamines, N-acylamino acids and related compounds used alone or in combination should be beneficial to plump and pout lips, enhance and firm eyelids, enlarge and augment breasts, elongate and expand penis.
In one of the studies, skin thickness was measured by micrometer calipers as follows: The skin was grasped with a 2×6 cm metal hinge; the internal faces of which were coated with emery cloth to prevent slippage, and manually squeezed to threshold subject discomfort. Combined thickness of two whole-skin layers including thickness of the two hinge leaves was measured with micrometer calipers. Thickness of the two hinge leaves was subtracted to determine the actual thickness of two whole-skin layers. Triplicate measurements on treated sites were conducted and an average number was used for calculation of the skin thickness.

[1] = Banana peel air oxidation test (antioxidant property); conditions: 0.1 M, 5 ml, room temperature
Source text: (§1) An antioxidant can be defined as a substance capable of preventing or inhibiting oxidation. The antioxidant property can be readily determined by using any one of the following test methods: prevention or retardation of air oxidation of (a) anthralin, (b) hydroquinone, or (c) banana peel. A freshly prepared anthralin solution or cream is bright yellow, and an air oxidized one is brownish or black. A hydroquinone solution or cream is colorless or white color, and an air oxidized one is brownish or black. A freshly peeled banana peel is light yellow in color and an oxidized one ranges in color from tan, dark tan, brown to brownish black.

[2] = Antioxidant screen tests: air oxidation of anthralin and hydroquinone
Source text: as §1

penis = assay: Direct augmentation of penis, penile circumference by tape measure; format: in vivo, human; conditions: 20% solution two to three times daily for six weeks, person
Description: The plumping, pouting or firming effects on lips and eyelids by topical application of an hydroxycarboxylic acid, N-acyl-aldosamine, N-acylamino acid or related compound was determined by clinical as well as photographic evaluation. The elongation or expanding effect of penis was determined by direct measurement of penis before and after once or twice daily topical application of an hydroxycarboxylic acid, N-acyl-aldosamine, N-acylamino acid or related compound. • (C) Antioxidants
One test on direct augmentation of penis was carried out as follows. Lactobionic acid 20% solution was prepared by dissolving lactobionic acid 20 g in water 50 ml and propylene glycol 30 ml. A subject, volunteered to test an active ingredient of the present invention to enhance penile enlargement. Each morning for one week prior to treatment penile circumference was measured. Measurements were made with a cloth tailor's tape measure. Penile circumference of the glans region, which included the covering foreskin, ranged from 9.5 cm to 10.5 cm. The above lactobionic acid 20% solution was topically applied two to three times daily on the glans penis including the covering foreskin region for six weeks. Morning measurements were again made daily for one week after treatment was stopped. Penile circumference ranged from 11.5 cm to 13 cm after six weeks of topical treatment with 20% lactobionic acid solution.

eyelids, lips, skin = assay: Plumping or firming of eyelids, lips and skin, clinical and photographic evaluation; format: in vivo, human
Description: Standard photographs were taken before and after topical applications of test formulations. Plumping or firming effect was determined by clinical as well as photographic evaluation. It was discovered that hydroxycarboxylic acids, N-acyl-aldosamines, N-acylamino acids and related compounds had substantial effect on plumping or firming the eyelids. Aside from clinical as well as photographic evaluation, eyelids plumping or firming also was determined from the disappearance of certain skin lines on the eyelids skin. When eyelids skin was plumping up, the eyelids skin firmed up or pulled up, and the skin lines became less apparent or disappeared. Therefore, when the skin lines on the eyelids disappeared after topical application of a test formulation, the test substance was judged to have plumping or firming effect on the eyelids. It also was discovered that hydroxycarboxylic acids, N-acyl-aldosamines, N-acylamino acids and related compounds on topical application had firming or plumping up effects on the eyelids skin. […] Increased fullness, volume, contour or the effect of enlarging, expanding, augmenting, enhancing, firming, pouting, plumping or elongating after topical application was measured or determined by clinical as well as photographic evaluations. One of the measurements for breast enlargement or augmentation was by the size of brassiere cup. After topical application of the active ingredient, the subject would feel fullness or greater tightness of their treated breast with increased volume and contour, and there was a need to change and increase the size of the brassiere cup. Thus the enlargement or augmentation of the breast was determined by clinical as well as the increased size of brassiere cup. The plumping, pouting or firming effects on lips and eyelids by topical application of an hydroxycarboxylic acid, N-acyl-aldosamine, N-acylamino acid or related compound was determined by clinical as well as photographic evaluation. The elongation or expanding effect of penis was determined by direct measurement of penis before and after once or twice daily topical application of an hydroxycarboxylic acid, N-acyl-aldosamine, N-acylamino acid or related compound. • (C) Antioxidants

breasts = assay: Breast enlargement after topical application, clinical evaluation and brassiere cup; format: in vivo, human
Description: A test formulation containing a hydroxycarboxylic acid, N-acyl-aldosamine, N-acylamino acid or related compound was topically applied once or twice daily to skin or mucus membrane organs or sites such as lips, eyelids, breasts and penis for one to six months. Increased fullness, volume, contour or the effect of enlarging, expanding, augmenting, enhancing, firming, pouting, plumping or elongating after topical application was measured or determined by clinical as well as photographic evaluations. One of the measurements for breast enlargement or augmentation was by the size of brassiere cup. After topical application of the active ingredient, the subject would feel fullness or greater tightness of their treated breast with increased volume and contour, and there was a need to change and increase the size of the brassiere cup. Thus the enlargement or augmentation of the breast was determined by clinical as well as the increased size of brassiere cup.
A subject, applied topically twice daily gluconolactone 15% lotion to their right breast for 3 months. […] At this time, they began treating both breasts. […]

[3] = anthralin, hydroquinone or banana peel air oxidation
[4] = 14% cream twice daily, person, after two months

O=C(O)[C@H](O)[C@@H](O)[C@H](O[C@@H]1O[C@H](CO)[C@H](O)[C@H](O)[C@H]1O)[C@H](O)CO [Lactobionic Acid, lactobionic acid]
% Increase Over (summary of increased skin thickness) (forearm skin): 5-58% | % Increase Over Control (%) (skin thickness) (forearm skin; Conc. 8%, twice daily on forearm skin, 3 months, control = opposite forearm, subject): 26% | % Increase Over Control (%) (skin thickness) (forearm skin; Conc. 20%, twice daily on forearm skin, 4 months, control = opposite forearm, subject): 10% | color of fresh banana peels ([1]; after 72 hours, control in water dark tan at 24 to 72 hours): changed in color to tan | color of fresh banana peels ([1]; period of 24 hours, control in water tan within 6 hours): remained white-yellowish | antioxidant property by anthralin and hydroquinone test methods [2]: moderate antioxidant | glans penile augmentation and foreskin thickness (in words) (penis): glans penile augmentation had occurred, as well as increased thickness of foreskin

CCC(=O)N[C@H]1C(O)O[C@H](CO)[C@@H](O)[C@@H]1O (stereo partly drawn) [N-Propanoyl-D-glucosamine]
appearance of treated forearm skin when lifted (forearm skin; 10% solution twice daily, at the end of treatment (6 to 9 weeks), untreated forearm still loose and relatively thin): more firm, smooth and plump when lifted | increase in skin thickness of treated forearm (forearm skin; 10% solution twice daily, person one, after 4 weeks, untreated forearm no change): 8% | increase in skin thickness of treated forearm (forearm skin; 10% solution twice daily, person one, after 6 weeks, untreated forearm no change): 23% | increase in skin thickness of treated forearm (forearm skin; 10% solution twice daily, person one, after 9 weeks, untreated forearm no change): 28% | increase in skin thickness of treated forearm (forearm skin; 10% solution twice daily, person two, after 4 weeks, untreated forearm no change): 13% | increase in skin thickness of treated forearm (forearm skin; 10% solution twice daily, person two, after 6 weeks): 27% | increase in skin thickness of treated forearm (forearm skin; 10% solution twice daily, person, after 5 weeks, untreated forearm no change): 19% | increase in skin thickness of treated forearm (forearm skin; 10% solution twice daily, person, after 8 weeks): 33%

O=C(O)C(O)c1ccccc1 (racemic) [DL-Mandelic Acid, 2-henyl-2-hydroxyethanoic acid]
% Increase Over (summary of increased skin thickness) (forearm skin): 22-27% | % Increase Over Control (skin thickness) (forearm skin; 30% solution, twice daily on forearm skin, 4 months, control = opposite forearm, one subject): 22% and 27%

CC(O)C(=O)O (racemic) [DL-Lactic Acid, 2-hydroxypropanoic acid]
% Increase Over (summary of increased skin thickness) (forearm skin): 17-42%

CC1(C)COC(=O)C1O (stereo not drawn) [pantolactone]
antioxidant properties based on the screen tests [2, 3]: antioxidant substances

CC(C)(O)C(=O)O [Methyllactic Acid, 2-methyl-2-hydroxypropanoic acid]
% Increase Over (summary of increased skin thickness) (forearm skin): 14-20%

O=C(O)CO [Glycolic Acid, 2-hydroxyethanoic acid]
% Increase Over (summary of increased skin thickness) (forearm skin): 11-43%

O=C(O)CC(O)C(=O)O (stereo not drawn) [malic acid, 2-hydroxybutane-1,4-dioic acid]
antioxidant properties based on the screen tests [2, 3]: antioxidant substances

O=C(O)c1ccccc1O [Salicylic Acid, 2-hydroxybenzoic acid, reference compound]
effect on skin plumpness or thickness (in words) (forearm skin; topical application on forearm skin): decreased instead of increasing skin thickness

O=C(O)[C@H](O)[C@@H](O)[C@H](O[C@@H]1O[C@H](CO)[C@H](O)[C@H](O)[C@H]1O)[C@H](O)CO [Maltobionic acid, maltobionic acid]
skin fullness and plumping (eyelids, lips, skin; 20% solution twice daily applied prior to continued glyceric acid 14% cream, same subject, after five weeks): marked enhancement of skin fullness and plumping

O=C1O[C@H]([C@H](O)CO)C(O)=C1O [isoascorbic acid, D-erythro-hex-2-enonic acidr-lactone]
antioxidant properties based on the screen tests [2, 3]: antioxidant substances

O=C1O[C@H](CO)[C@@H](O)[C@H](O)[C@H]1O [D-Gluconolactone]
% Increase Over (summary of increased skin thickness) (forearm skin): 7-19% | size of treated right breast (breasts; 15% lotion twice daily, person, after 6 weeks, untreated left breast no change): noticeable increase in the size of their right breast | plumpness and firmness of treated right breast compared to left breast (breasts; 15% lotion twice daily, person, at the end of 3 months): increased in plumpness and firmness | plumpness and firmness of both breasts (breasts; 15% lotion, both breasts treated, at the end of another 3 months (6 month treatment period)): substantially increased in plumpness and firmness

O=C(O)CC(C(=O)O)C(O)C(=O)O (stereo not drawn) [isocitric acid]
antioxidant properties based on the screen tests [2]: antioxidant substances

O=C(O)C(O)CO (stereo not drawn) [glyceric acid, 2,3-dihydroxypropanoic acid]
lips plumpness (eyelids, lips, skin; [4]): more plump | plumping of skin (eyelids, lips, skin; [4]): plumping of skin was detectable | skin of the upper arms appearance (eyelids, lips, skin; [4]): diminished crepe paper appearance | upper eyelids droop and fullness (eyelids, lips, skin; [4]): diminished droop and enhanced fullness

CC(=O)NC1CCSC1=O (racemic) [N-Acetyl-DL-homocysteine Thiolactone]
% Increase Over Control (%) (skin thickness) (forearm skin; 5% lotion, twice daily on forearm skin, 3 weeks, control = opposite forearm, one subject): 13% and 65%

CC(=O)N[C@@H](CS)C(=O)O [N-Acetyl-L-cysteine]
antioxidant properties based on the screen tests [2, 3]: antioxidant substances
